The source of these data is ChEMBL document CHEMBL1141602, “Chemical library and structure-activity relationships of 11-demethyl-12-oxo calanolide A analogues as anti-HIV-1 agents” (J Med Chem, 2008).

In series [1] the test system is Human immunodeficiency virus 1. Briefly: Antiviral activity against HIV1 at 1.0 uM. The class given is functional.
In series [2] the test system is HOS. Put plainly: Toxicity in CD4 expressing HOS cells at 10 uM. To be noted: human. The series is classed as cell-based.
Series [3] is described as follows: Therapeutic index, ratio of IC50 for HOS cells to EC50 for human HIV1. To be noted: read-out: Ratio IC50/EC50. The series is classed as cell-based.
The test system of series [4] is Human immunodeficiency virus 1. Put plainly: Antiviral activity against HIV1. The class given is functional, organism-based.
For series [5], the system named is Mycobacterium tuberculosis. Briefly: Antimicrobial activity against Mycobacterium tuberculosis. The class given is functional.

Molecules are shown by their SMILES. In brackets after ≈: the same amount, converted by molar mass.

In general, inhibition refers to the relative decrease from the control value, in per cent. A higher inhibition goes with a response far below the control. Broadly, the EC50 is the concentration giving half of the maximal effect. Read a low EC50 as greater potency. What is called MIC is the least concentration at which growth counts as inhibited.

In the case of `CC1CC(=O)c2c(c3c(c4c(-c5ccc([N+](=O)[O-])cc5)cc(=O)oc24)OC(C)(C)C=C3)O1` (stereo unspecified), 1 µM produced 51.9% inhibition in series [1].
As to `CCCCc1cc(=O)oc2c3c(c4c(c12)OC(c1ccccc1)C=C4)OC(C)CC3=O` (stereo unspecified), 1 µM produced 96.4% inhibition in series [1]. The molecule also came in with an Activity in series [2] of 10%.
Regarding `CCCCC1C=Cc2c3c(c4oc(=O)cc(CCC(F)(F)F)c4c2O1)C(=O)CC(C)O3` (stereo unspecified), the inhibition at 1 µM in series [1] was 53.6%.
The same measure, in the same setting: as for `CCCc1cc(=O)oc2c1c1c(c3occc(=O)c32)C=CC(C)(C)O1`, the figure is 64.9%.
With `CCc1cc(=O)oc2c3c(c4c(c12)OC(c1ccccc1)C=C4)OC(C)CC3=O` (stereo unspecified), in series [1], the inhibition at 1 µM was determined as 96.4%. The Activity in series [2] turned out to be 10%.
The molecule `CCCc1cc(=O)oc2c3c(c4c(c12)OC(CCC)C=C4)OC(C)CC3=O` (stereo unspecified) registered an inhibition at 1 µM in series [1] of 54.1%.
`CCCCCC1CC(=O)c2c(c3c(c4c(CCC)cc(=O)oc24)OC(C)(C)C=C3)O1` (stereo unspecified) displayed an inhibition at 1 µM in series [1] of 46.4%. In series [2], this molecule returned an Activity of less than 10%.
Consider `C/C=C/C1C=Cc2c3c(c4oc(=O)cc(CC)c4c2O1)C(=O)CC(C)O3` (stereo unspecified), for which the inhibition at 1 µM in series [1] is 56.4%.
Take `CCCC1C=Cc2c3c(c4oc(=O)cc(CC)c4c2O1)C(=O)CC(C)O3` (stereo unspecified): in series [1], the inhibition at 1 µM worked out at 97%. In addition, the Activity in series [2] turned out to be 10%.
The like results for `CCCc1c(F)c(=O)oc2c3c(c4c(c12)OC(C)(C)C=C4)OC(C)CC3=O` (stereo unspecified) were, in that order, 45.3% and 10%.
In series [2], `CCc1c(F)c(=O)oc2c3c(c4c(c12)OC(C)(C)C=C4)OC(C)CC3=O` (stereo unspecified) registered an Activity of 10%.
`CCCc1cc(=O)oc2c3c(c4c(c12)OC(C)(C)C=C4)OC(CCC)CC3=O` (stereo unspecified) showed an inhibition at 1 µM in series [1] of 61.9%. The Activity in series [2] was less than 10%. In series [3], the selectivity ratio is 102. Further, in series [4], it took 32.5 nM to reach a half-maximal effect (EC50).
`C/C=C/C1C=Cc2c3c(c4oc(=O)c(F)c(CC)c4c2O1)C(=O)CC(C)O3` (stereo unspecified) came in with an inhibition at 1 µM in series [1] of 46.2%.
Regarding `CCCc1cc(=O)oc2c3c(c4c(c12)OC(C)C=C4)OCC(C)C3=O` (stereo unspecified), the inhibition at 1 µM in series [1] is 62.4%. For the same molecule, the Activity in series [2] was determined as 10%.
In turn, `C/C=C/C1C=Cc2c3c(c4oc(=O)c(Cl)c(CCC)c4c2O1)C(=O)CC(C)O3` (stereo unspecified) displayed an inhibition at 1 µM in series [1] of 57.3%.
On the same count and under the same terms, as for `CCCc1c(Cl)c(=O)oc2c3c(c4c(c12)OCC(C)C4OCC)OC(C)CC3=O` (stereo unspecified), the figure is 51.7%.
`CCCCC1C=Cc2c3c(c4oc(=O)cc(CCC)c4c2O1)C(=O)C(C)CO3` (stereo unspecified) had an inhibition at 1 µM in series [1] of 35.2%. The molecule further showed an Activity in series [2] of less than 10%.
For the molecule `CCCc1cc(=O)oc2c3c(c4c(c12)OC(C)(C)C=C4)OC(c1ccc(C)cc1)CC3=O` (stereo unspecified), the inhibition at 1 µM in series [1] was determined as 57%.
Still for that read-out and setting: to `CCCc1cc(=O)oc2c3c(c4c(c12)OC(c1ccccc1[N+](=O)[O-])C=C4)OC(C)CC3=O` (stereo unspecified) belongs 52.6%; to `CCc1c(F)c(=O)oc2c3c(c4c(c12)OC(C)C=C4)OC(C)CC3=O` (stereo unspecified), 39.5%.
The molecule `CCCc1c(Cl)c(=O)oc2c3c(c4c(c12)OC(c1ccccc1)C=C4)OC(C)CC3=O` (stereo unspecified) gave an inhibition at 1 µM in series [1] of 96.3%. Further, the Activity in series [2] was greater than 80%.
On to `CCCc1cc(=O)oc2c3c(c4c(c12)OC(C)(C)C=C4)OCC(C)C3=O` (stereo unspecified), for which the inhibition at 1 µM in series [1] came out at 38.9%. The molecule further came in with an Activity in series [2] of 10%.
As to `CCc1cc(=O)oc2c3c(c4c(c12)OC(C)(C)C=C4)OC(C)CC3=O` (stereo unspecified), testing at 1 µM in series [1] gave an inhibition of 73.2%. Moreover, the selectivity ratio in series [3] was greater than 1000. In addition, it took 270 nM to reach a half-maximal effect in series [4] (EC50).
`CCCc1cc(=O)oc2c3c(c4c(c12)OC(c1ccccc1)C=C4)OCC(C)C3=O` (stereo unspecified) had an Activity in series [2] of less than 10%.
`CCCc1c(Cl)c(=O)oc2c3c(c4c(c12)OCC(C)=C4)OC(C)CC3=O` (stereo unspecified) gave an inhibition at 1 µM in series [1] of 49.1%.
On the same count and under the same terms, as for `C/C=C/C1C=Cc2c3c(c4oc(=O)cc(CCC)c4c2O1)C(=O)C(C)CO3` (stereo unspecified), the figure is 37.8%; as for `CCCCc1cc(=O)oc2c3c(c4c(c12)OC(C)C=C4)OC(C)CC3=O` (stereo unspecified), 75.4%.
On the same count and under the same terms, as for `CC1CC(=O)c2c(c3c(c4c5c(c(=O)oc24)CCCC5)OC(C)(C)C=C3)O1` (stereo unspecified), the figure is 67%.
Consider `CCCCC1C=Cc2c3c(c4oc(=O)cc(CC)c4c2O1)C(=O)CC(C)O3` (stereo unspecified), for which the inhibition at 1 µM in series [1] was determined as 96.7%. This molecule also gave an Activity in series [2] of 10%.
The molecule `CCCc1c(F)c(=O)oc2c3c(c4c(c12)OCC(C)=C4)OC(C)CC3=O` (stereo unspecified) returned an inhibition at 1 µM in series [1] of 47.1%.
The same measure, in the same setting: to `CCc1cc(=O)oc2c3c(c4c(c12)OC(C)C=C4)OC(C)CC3=O` (stereo unspecified) belongs 57.4%.
In series [1], `CCCc1cc(=O)oc2c3c(c4c(c12)OC(c1ccccc1[N+](=O)[O-])CC4OCC)OC(C)CC3=O` (stereo unspecified) had an inhibition at 1 µM of 61%. The molecule further displayed an Activity in series [2] of less than 10%.
`CC1CC(=O)c2c(c3c(c4c(CN5CCN(C)CC5)cc(=O)oc24)OC(C)(C)C=C3)O1` (stereo unspecified): testing at 1 µM in series [1] gave an inhibition of 48.3%.
The same measure, in the same setting: as for `CC1CC(=O)c2c(c3c(c4c(CCC(F)(F)F)cc(=O)oc24)OC(c2ccccc2)C=C3)O1` (stereo unspecified), the figure is 47.6%; as for `COc1cc(-c2cc(=O)oc3c4c(c5c(c23)OC(C)(C)C=C5)OC(C)CC4=O)cc(OC)c1OC` (stereo unspecified), 58%.
`CCCc1cc(=O)oc2c3c(c4c(c12)OC(C)(C)C=C4)OC(c1ccccc1)CC3=O` (stereo unspecified): in series [1], the inhibition at 1 µM came out at 62.7%. In series [2], the Activity was less than 10%.
As for `CCCc1c(Cl)c(=O)oc2c3c(c4c(c12)OC(C)C=C4)OC(C)CC3=O` (stereo unspecified), in series [1], the inhibition at 1 µM was 55.7%.
The molecule `CCCc1c(Cl)c(=O)oc2c3c(c4c(c12)OC(C)(C)C=C4)OC(C)CC3=O` (stereo unspecified) gave an inhibition at 1 µM in series [1] of 68.1%. Moreover, the selectivity ratio in series [3] was 243. This molecule registered an EC50 in series [4] of 370 nM.
The like results for `CCCc1cc(=O)oc2c3c(c4c(c12)OC(C)(C)C=C4)OC(CBr)CC3=O` (stereo unspecified) were, in that order, 93.5%, greater than 10500 and 2.85 nM.
In series [1], `CCCc1cc(=O)oc2c3c(c4c(c12)OC(C)(C)C=C4)OC(C)CC3=O` (racemic) showed an inhibition at 1 µM of 73.1%.
For `CCCc1cc(=O)oc2c3c(c4c(c12)OC(C)(C)C=C4)OC(C)CC3O` (racemic), in series [4], the half-maximal effective concentration (EC50) is 310 nM.
For the molecule `CCCc1cc(=O)oc2c3c(c4c(c12)OC(C)(C)C=C4)O[C@@H]1CCCC[C@@H]1C3=O` (relative stereo), in series [1], the inhibition at 1 µM came to 59.3%. For the same molecule, in series [2], the Activity is less than 10%.
On the same counts, the results for `CCCc1cc(=O)oc2c3c(c4c(c12)OC(C)(C)C=C4)O[C@H]1CCCC[C@@H]1C3=O` (relative stereo) are 40% and less than 10%.
`CCCc1cc(=O)oc2c3c(c4c(c12)OC(C)(C)C=C4)OC(C)(C)CC3=O` [114, 10,10-DIMETHYL-11-DEMETHYL-12-OXO CALANOLIDE A]: in series [1], 1 µM produced 68.3% inhibition. Further, the selectivity ratio in series [3] stood at 47. Also, in series [4], the EC50 came to 640 nM.
The molecule `CCCc1cc(=O)oc2c3c(c4c(c12)OC(C)(C)C=C4)O[C@H](C)[C@@H](C)[C@@H]3O` [CALANOLIDE A] gave an EC50 in series [4] of 100 nM. The molecule further registered an MIC in series [5] of 3.13 µg/mL (≈ 8.45 µM).
